Measurements published in ChEMBL document CHEMBL1201862, “PubChem BioAssay data set” (2004).
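These data come from cells grown in 96-well plates and exposed to compound for 48 hours at five concentrations. GI50 marks 50% less growth.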 Active and inactive are the calls of the source. Rule as the data show it: active = GI50 up to about 1.1 µM and inactive = higher.

Experiments:
Test in all cases: DTP human tumour cell line panel, 48 h
HOP-92 = system: HOP-92
MOLT-4 = system: MOLT-4
UACC-62 = system: UACC-62
NCI-H460 = system: NCI-H460
SK-MEL-2 = system: SK-MEL-2
HCC 2998 = system: HCC 2998
SN12C = system: SN12C
LOX IMVI = system: LOX IMVI
HL-60 = system: HL-60
SK-OV-3 = system: SK-OV-3
HT-29 = system: HT-29
MDA-MB-231 = system: MDA-MB-231
IGROV-1 = system: IGROV-1
A549 = system: A549
CCRF-CEM = system: CCRF-CEM
EKVX = system: EKVX
SR = system: SR
SF-539 = system: SF-539

Measured: GI50

COc1cc2nc(-c3ccc4ccccc4c3)nc(O)c2cc1OC
inactive: HOP-92 37.5 µM | MOLT-4 > 100 µM | UACC-62 99.3 µM | NCI-H460 > 100 µM | SK-MEL-2 42.8 µM | HCC 2998 > 100 µM | SN12C > 100 µM | LOX IMVI > 100 µM | HL-60 > 100 µM | SK-OV-3 > 100 µM | HT-29 > 100 µM | MDA-MB-231 > 100 µM | IGROV-1 > 100 µM | A549 > 100 µM | CCRF-CEM > 100 µM | EKVX > 100 µM | SR > 100 µM

O=C1C=CC(=O)c2c(NCC3CC3)ccc(NCC3CC3)c21
inactive: SF-539 25.5 µM | MOLT-4 11.8 µM | UACC-62 18.3 µM | NCI-H460 60.8 µM | SK-MEL-2 50.4 µM | HCC 2998 57.5 µM | SN12C 23.2 µM | LOX IMVI 20.7 µM | HL-60 11 µM | HT-29 32.2 µM | MDA-MB-231 36.1 µM | IGROV-1 47.9 µM | A549 47.8 µM | EKVX 29 µM | SR 21.9 µM

C(=C\c1ccccc1)/Cn1nc(-c2ccccc2)nc1-c1cnccn1
inactive: HOP-92 35.9 µM | SF-539 > 100 µM | MOLT-4 > 100 µM | UACC-62 > 100 µM | NCI-H460 > 100 µM | HCC 2998 > 100 µM | SN12C > 100 µM | LOX IMVI > 100 µM | HL-60 > 100 µM | SK-OV-3 66.7 µM | HT-29 > 100 µM | MDA-MB-231 > 100 µM | IGROV-1 > 100 µM | A549 > 100 µM | CCRF-CEM > 100 µM | EKVX > 100 µM | SR > 100 µM

CC(=O)NC(C)(C)C1CCC(C)=C(c2ccccc2)C1 (stereo unspecified)
inactive: HOP-92 19.5 µM | SF-539 > 100 µM | MOLT-4 > 100 µM | UACC-62 > 100 µM | NCI-H460 > 100 µM | HCC 2998 > 100 µM | SN12C > 100 µM | LOX IMVI > 100 µM | HL-60 31.1 µM | SK-OV-3 > 100 µM | HT-29 > 100 µM | MDA-MB-231 55.8 µM | IGROV-1 > 100 µM | A549 > 100 µM | CCRF-CEM 96.8 µM | EKVX > 100 µM | SR > 100 µM

CCCC(=O)NC1=C(NCC)C(=O)c2ccccc2C1=O
inactive: HOP-92 > 100 µM | SF-539 > 100 µM | MOLT-4 73.3 µM | UACC-62 > 100 µM | NCI-H460 > 100 µM | HCC 2998 86.3 µM | SN12C > 100 µM | HL-60 40.5 µM | SK-OV-3 > 100 µM | HT-29 44.1 µM | MDA-MB-231 83.4 µM | IGROV-1 > 100 µM | A549 > 100 µM | CCRF-CEM > 100 µM | SR 60.5 µM

CN(C)c1n2c3cc([N+](=O)[O-])ccc3[n+]3c(N(C)C)n4ccccc4c3c2c2cccc[n+]12.[O-][Cl+3]([O-])([O-])[O-].[O-][Cl+3]([O-])([O-])[O-]
inactive: HOP-92 > 100 µM | MOLT-4 > 100 µM | UACC-62 > 100 µM | NCI-H460 > 100 µM | SK-MEL-2 > 100 µM | HCC 2998 > 100 µM | SN12C 38.9 µM | LOX IMVI > 100 µM | HL-60 > 100 µM | SK-OV-3 > 100 µM | HT-29 > 100 µM | MDA-MB-231 > 100 µM | IGROV-1 > 100 µM | A549 > 100 µM | CCRF-CEM > 100 µM | EKVX > 100 µM | SR > 100 µM

CN(c1cn(C2CC[C@@H](CO)O2)c(=O)[nH]c1=O)C1CCCCC1 (stereo partly specified)
inactive: HOP-92 > 100 µM | SF-539 > 100 µM | MOLT-4 > 100 µM | UACC-62 > 100 µM | NCI-H460 > 100 µM | HCC 2998 > 100 µM | SN12C > 100 µM | LOX IMVI > 100 µM | HL-60 > 100 µM | SK-OV-3 > 100 µM | HT-29 > 100 µM | MDA-MB-231 > 100 µM | IGROV-1 > 100 µM | A549 > 100 µM | CCRF-CEM > 100 µM | SR > 100 µM

Cc1ccc(C(=O)/C=C2\Nc3ccccc3S\C2=N\CS(=O)(=O)c2ccc(C)cc2)cc1
inactive: HOP-92 > 10 µM | SF-539 > 10 µM | MOLT-4 > 10 µM | UACC-62 > 10 µM | HCC 2998 > 10 µM | SN12C > 10 µM | LOX IMVI > 10 µM | HL-60 7.41 µM | SK-OV-3 6.89 µM | HT-29 > 10 µM | MDA-MB-231 > 10 µM | IGROV-1 > 10 µM | A549 > 10 µM | CCRF-CEM > 10 µM | SR > 10 µM

COc1cc(C[S+]([O-])c2ccc(O)cc2)cc(OC)c1OC (stereo unspecified)
inactive: HOP-92 > 100 µM | SF-539 > 100 µM | MOLT-4 > 100 µM | UACC-62 > 100 µM | NCI-H460 > 100 µM | SK-MEL-2 > 100 µM | SN12C > 100 µM | LOX IMVI > 100 µM | HL-60 > 100 µM | SK-OV-3 > 100 µM | HT-29 > 100 µM | MDA-MB-231 > 100 µM | IGROV-1 > 100 µM | A549 > 100 µM | CCRF-CEM > 100 µM | EKVX > 100 µM | SR > 100 µM
